Results reported in patent US8575156B2, “Cyclic inhibitors of 11β-hydroxysteroid dehydrogenase 1” (Vitae Pharmaceuticals, Inc., priority 2007, dated 2013).
Like-named read-outs stand apart in the source and are kept apart here.

Key:
[1] = target: T1, 11β-HSD1 (Homo sapiens, UniProt P28845); conditions: for Average % inhibition at 100 nM: 0.1 µM; for IC50: read-out: IC50 Range, microsomes from CHO cells overexpressing human 11β-HSD1; for Average % inhibition at 111.1 nM: 111.1 nM compound, 0.1111 µM
T1 sequence (P28845 whole entry): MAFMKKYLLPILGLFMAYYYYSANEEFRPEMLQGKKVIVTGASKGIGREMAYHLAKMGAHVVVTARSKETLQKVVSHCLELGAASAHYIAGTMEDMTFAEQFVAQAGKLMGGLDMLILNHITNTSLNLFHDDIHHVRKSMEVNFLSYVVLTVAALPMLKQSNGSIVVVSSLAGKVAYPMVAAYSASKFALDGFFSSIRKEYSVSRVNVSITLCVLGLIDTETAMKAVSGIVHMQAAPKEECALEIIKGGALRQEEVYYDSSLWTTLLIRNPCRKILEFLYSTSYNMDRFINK

[2] = target: T1, 11β-HSD1; test: biochemical; conditions: for IC50: IC50 Range, Biological Test Example 1, microsomes from CHO cells overexpressing human 11β-HSD1; for inhibition at 0.1111 µM: read-out: Average % inhibition at 111.1 nM, Biological Test Example 1, 111.1 nM compound; for inhibition at 0.1 µM: read-out: Average % inhibition at 100 nM, Biological Test Example 1, 100 nM compound
[3] = Biological Test Example 1, 100 nM compound
[4] = Biological Test Example 1, 100 nM

Row | Compound | Average % inhibition at 100 nM [1, 3] [%] | IC50 [2] [nM] | also measured
1 | CC1CC(CCO)(c2ccc(F)cc2)OC(=O)N1[C@@H](C)c1ccc(Br)cc1 (single isomer, unassigned) [EXAMPLE 163 Isomer 2] | 96.9 | < 100 | 
2 | CC(C)(C)OC(=O)N1CCC(N2CCC(CCCO)(c3ccccc3)OC2=O)C1 (single isomer, unassigned) [EXAMPLE 208 Isomer 4] | 29.3 | < 100 | 
3 | C[C@@H](c1ccccc1)N1CCC(CO)(c2ccc(F)cc2)OC1=O (single isomer, unassigned) [EXAMPLE 114 Isomer 2] | 66.6 | < 100 | 
4 | C[C@@H](c1ccc(-c2ccc(F)cc2F)cc1)N1CCC(CCCO)(c2cccs2)OC1=O (single isomer, unassigned) [EXAMPLE 171 Isomer 1] | 95.7 | < 100 | 
5 | CC(C)(C)OC(=O)N1CCC(N2CCC(CCCO)(c3ccccc3)OC2=O)C1 (single isomer, unassigned) [EXAMPLE 208 Isomer 3] | 64.6 | < 100 | 
6 | COc1ccc([C@H](C)N2CCC(CC(O)CO)(c3ccccc3)OC2=O)cc1 (single isomer, unassigned) [EXAMPLE 286 Isomer 1] | 94.1 | < 100 | 
7 | C=CCC1(c2cccs2)CCN([C@@H](C)c2ccc(Br)cc2)C(=O)O1 (single isomer, unassigned) [EXAMPLE 157 Isomer 2] | 92.9 |  | IC50 ([1]; Biological Test Example 1): < 100 nM; inhibition at 0.1111 µM [2]: 90.7%
8 | C[C@@H](c1ccc(-c2ccc(F)cc2F)cc1)N1CC[C@](CC(O)CNC(N)=O)(c2ccc(F)cc2)OC1=O (single isomer, unassigned) [EXAMPLE 276 Isomer 1] | 83.1 | < 100 | 
9 | CC(C)C1(CC(O)CO)CCN([C@@H](C)c2ccc(-c3ccc(F)cc3F)cc2)C(=O)O1 (single isomer, unassigned) [EXAMPLE 223 Isomer 1] | 94.2 | < 100 | 
10 | CC(C)(C)OC(=O)N1CCC(N2CCC(CCCO)(c3ccccc3)OC2=O)C1 (single isomer, unassigned) [EXAMPLE 208 Isomer 2] | 38.5 | > 100 | 
11 | COc1ccc([C@H](C)N2CCC(CCC(N)=O)(C(C)C)OC2=O)cc1 (single isomer, unassigned) [EXAMPLE 333 Isomer 2] |  | > 100 | Average % inhibition at 100 nM [1, 4]: 9.1%
12 | C[C@@H](c1ccc(-c2ccc(F)cc2F)cc1)N1CC[C@](CC(O)CO)(c2ccc(F)cc2)OC1=O (single isomer, unassigned) [EXAMPLE 52 Isomer 2] | 90.8 |  | IC50 ([1]; Biological Test Example 1): < 100 nM; inhibition at 0.1111 µM [2]: 97%
13 | O=C1OC(CCO)(c2ccccc2)CCN1c1ccc(F)c(-c2ccc(F)cc2)c1 (single isomer, unassigned) [EXAMPLE 96 Isomer 1] |  | < 100 | Average % inhibition at 111.1 nM ([1]; Biological Test Example 1): 98.5%; inhibition at 0.1 µM [2]: 88.3%
14 | CC(C)C1(CC(O)CO)CCN([C@@H](C)c2ccc(-c3ccc(F)cc3F)cc2)C(=O)O1 (single isomer, unassigned) [EXAMPLE 223 Isomer 4] | 52.5 | > 100 | 
15 | C=CCC1(c2ccc(F)cc2)CCN([C@@H](C)c2ccc(Br)cn2)C(=O)O1 (single isomer, unassigned) [EXAMPLE 128 Isomer 1] |  | 100 to 1000 | Average % inhibition at 111.1 nM ([1]; Biological Test Example 1): 27.5%; inhibition at 0.1 µM [2]: 26.1%
16 | C[C@@H](c1ccc(-c2ccc(F)cc2F)cc1)N1CC[C@](CC(O)CNC(N)=O)(c2ccc(F)cc2)OC1=O (single isomer, unassigned) [EXAMPLE 276 Isomer 2] | 35.4 | > 100 | 
17 | CC(C)C1(CC(O)CO)CCN([C@@H](C)c2ccc(-c3ccc(F)cc3F)cc2)C(=O)O1 (single isomer, unassigned) [EXAMPLE 223 Isomer 2] | 97.1 | < 100 | 
18 | COc1ccc([C@H](C)N2CCC(CCCO)(C(C)C)OC2=O)cc1 (single isomer, unassigned) [EXAMPLE 332 Isomer 1] |  | < 100 | Average % inhibition at 100 nM [1, 4]: 97.8%
19 | C[C@@H](c1ccc(-c2ccc(F)cc2)cc1)N1CC[C@](CC(O)CN(C)S(C)(=O)=O)(c2ccc(F)cc2)OC1=O (single isomer, unassigned) [EXAMPLE 278 Isomer 1] | 86.6 | < 100 | 
20 | CC[C@@H](c1ccc(Br)cc1)N1CCC(CCO)(c2ccc(F)cc2)OC1=O (single isomer, unassigned) [EXAMPLE 143 Isomer 2] |  |  | IC50 ([1]; Biological Test Example 1): < 100 nM; inhibition at 0.1 µM [2]: 95.4%
21 | CC1CC(CCO)(c2ccc(F)cc2)OC(=O)N1[C@@H](C)c1ccc(Br)cc1 (single isomer, unassigned) [EXAMPLE 163 Isomer 3] | 11.3 | > 100 | 

Row | Compound | Average % inhibition at 100 nM [1, 3] [%] | IC50 [2] [nM] | also measured
22 | CC(C)(C)OC(=O)N1CCC(N2CCC(CCCO)(c3ccccc3)OC2=O)C1 (single isomer, unassigned) [EXAMPLE 208 Isomer 1] | 76.6 | < 100 | 
23 | C[C@@H](c1ccc(Br)cc1)N1CCC(CCO)(c2ccc(F)cc2F)OC1=O (single isomer, unassigned) [EXAMPLE 365 Isomer 1] |  | < 100 | Average % inhibition at 100 nM [1, 4]: 97.5%
24 | COc1ccc([C@H](C)N2CCC(CCCO)(c3ccc(F)cc3)OC2=O)cc1 (single isomer, unassigned) [EXAMPLE 201 Isomer 2] | 27.0 | > 100 | 
25 | O=C1OC(CCO)(c2ccccc2)CCN1c1ccc(F)c(-c2ccc(F)cc2)c1 (single isomer, unassigned) [EXAMPLE 96 Isomer 2] |  | > 1000 | Average % inhibition at 111.1 nM ([1]; Biological Test Example 1): 9.7%
26 | COc1ccc([C@H](C)N2CCC(CC(O)CO)(c3ccccc3)OC2=O)cc1 (single isomer, unassigned) [EXAMPLE 286 Isomer 2] | 94.5 | < 100 | 
27 | COc1ccc([C@H](C)N2CCC(CC(O)CO)(c3ccccc3)OC2=O)cc1 (single isomer, unassigned) [EXAMPLE 286 Isomer 3] | 70.5 | < 100 | 
28 | COc1ccc([C@H](C)N2CCC(CCCO)(c3ccc(F)cc3)OC2=O)cc1 (single isomer, unassigned) [EXAMPLE 201 Isomer 1] | 93.2 | < 100 | 
29 | O=C1OC(CCO)(c2ccccc2F)CCN1c1cccc(-c2ccc(F)cc2)n1 (single isomer, unassigned) [EXAMPLE 104 Isomer 1] |  | 100 to 1000 | Average % inhibition at 111.1 nM ([1]; Biological Test Example 1): 44.3%
30 | CC(C)C1(CCC(N)=O)CCN([C@@H](C)c2ccc(Cl)cc2)C(=O)O1 (single isomer, unassigned) [EXAMPLE 334 Isomer 2] |  | > 100 | Average % inhibition at 100 nM [1, 4]: 31.9%
31 | CC(C)C1(CC(O)CO)CCN([C@@H](C)c2ccc(-c3ccc(F)cc3F)cc2)C(=O)O1 (single isomer, unassigned) [EXAMPLE 223 Isomer 3] | 27.8 | > 100 | 
32 | O=C1OC(CCCO)(c2ccccc2)CCN1C1CC1c1ccccc1 (single isomer, unassigned) [EXAMPLE 188 Isomer 2, 6-(3-hydroxypropyl)-6-phenyl-3-(2-phenylcyclopropyl)-1,3-oxazinan-2-one] | 31.7 | > 100 | 
33 | CC(C)C1(CCCO)CCN([C@@H](C)c2ccc(Cl)cc2)C(=O)O1 (single isomer, unassigned) [EXAMPLE 187 Isomer 1] |  | < 100 | Average % inhibition at 100 nM [1]: 98.7%
34 | C[C@@H](c1ccc(-c2ccc(F)cc2F)cc1)N1CCC(CCO)(C(C)(C)C)OC1=O (single isomer, unassigned) [EXAMPLE 336 Isomer 1] |  | < 100 | Average % inhibition at 100 nM [1, 4]: 50.8%
35 | C=CCC1(c2cccs2)CCN([C@@H](C)c2ccc(-c3ccc(F)cc3)cc2)C(=O)O1 (single isomer, unassigned) [EXAMPLE 160 Isomer 2] |  |  | Average % inhibition at 111.1 nM ([1]; Biological Test Example 1): 95.2%; IC50 ([1]; Biological Test Example 1): < 100 nM; inhibition at 0.1 µM [2]: 95.9%
36 | C[C@@H](c1ccc(Br)cc1)N1CC[C@](CC(O)CO)(c2ccc(F)cc2)OC1=O (single isomer, unassigned) [EXAMPLE 144 Isomer 2] |  |  | Average % inhibition at 111.1 nM ([1]; Biological Test Example 1): 96.6%; IC50 ([1]; Biological Test Example 1): < 100 nM; inhibition at 0.1 µM [2]: 95.3%
37 | COc1ccc([C@H](C)N2CCC(CCCO)(C(C)C)OC2=O)cc1 (single isomer, unassigned) [EXAMPLE 332 Isomer 2] |  | > 100 | Average % inhibition at 100 nM [1, 4]: 32.2%
38 | COc1ccc([C@H](C)N2CCC(CCC(N)=O)(C(C)C)OC2=O)cc1 (single isomer, unassigned) [EXAMPLE 333 Isomer 1] |  | < 100 | Average % inhibition at 100 nM [1, 4]: 96.2%
39 | C[C@@H](c1ccc(-c2ccc(F)cc2F)cc1)N1CC[C@](CC(O)CN(C)C)(c2ccc(F)cc2)OC1=O (single isomer, unassigned) [EXAMPLE 273 Isomer 1] | 53.6 | < 100 | 
40 | C=CCC1(c2ccc(F)cc2)CCN([C@@H](C)c2ccc(Br)cn2)C(=O)O1 (single isomer, unassigned) [EXAMPLE 128 Isomer 2] |  | > 1000 | Average % inhibition at 111.1 nM ([1]; Biological Test Example 1): 6.5%
41 | C[C@@H](c1ccc(-c2ccc(F)cc2F)cc1)N1CC[C@](CC(O)CN(C)C)(c2ccc(F)cc2)OC1=O (single isomer, unassigned) [EXAMPLE 273 Isomer 2] | 17.9 | > 100 | 
42 | O=C1OC(CCO)(c2ccccc2F)CCN1c1cccc(-c2ccc(F)cc2)n1 (single isomer, unassigned) [EXAMPLE 104 Isomer 2] |  | < 100 | Average % inhibition at 111.1 nM ([1]; Biological Test Example 1): 98.1%
